Measurements taken from ChEMBL document CHEMBL1147306, “Studies on inhibitors of skin tumor promotion, VI. Inhibitory effects of quinones on Epstein-Barr virus activation” (J Nat Prod, 1989).

Legend:
Type in all cases: cell-based
Raji [1] = experiment: Inhibition of TPA-induced EBV-early antigen activation in human Raji cells at 500 molar ratio after 48 hrs by indirect immunofluorescence technique relative to TPA; settings: human gammaherpesvirus 4
[2] = Cytotoxicity against human Raji cells assessed as cell viability at 500 molar ratio; settings: read-out: Activity
[3] = Cytotoxicity against human Raji cells assessed as cell viability at 1000 molar ratio; settings: read-out: Activity
[4] = Cytotoxicity against human Raji cells assessed as cell viability at 10 molar ratio; settings: read-out: Activity
[5] = Cytotoxicity against human Raji cells assessed as cell viability at 100 molar ratio; settings: read-out: Activity
Raji [6] = experiment: Inhibition of TPA-induced EBV-early antigen activation in human Raji cells at 10 molar ratio after 48 hrs by indirect immunofluorescence technique relative to TPA; settings: human gammaherpesvirus 4
Raji [7] = experiment: Inhibition of TPA-induced EBV-early antigen activation in human Raji cells at 100 molar ratio after 48 hrs by indirect immunofluorescence technique relative to TPA; settings: human gammaherpesvirus 4

Row | Structure (SMILES) | EBV-EA activation % of TPA control (Raji [1]) | viability at 500 molar ratio [2] | viability at 1000 molar ratio [3] | viability at 10 molar ratio [4] | viability at 100 molar ratio [5] | EBV-EA activation % of TPA control (Raji [6]) | EBV-EA activation % of TPA control (Raji [7])
1 | COc1c(CO)c(O)cc2c1C(=O)c1cccc(O)c1C2=O [JUZUNOL] | 100% | > 80% | > 80% | > 80% | > 80% | 100% | 100%
2 | CN(C)C1=CC(=O)c2c(O)cccc2C1=O | 60.5% | > 80% | > 80% | > 80% | > 80% | 89.2% | 61.5%
3 | O=C(O)c1cc(O)c2c(c1)[C@@H]([C@H]1c3cc(C(=O)O)cc(O)c3C(=O)c3c(O[C@@H]4O[C@H](CO)[C@@H](O)[C@H](O)[C@H]4O)cccc31)c1cccc(O[C@@H]3O[C@H](CO)[C@@H](O)[C@H](O)[C@H]3O)c1C2=O [SENNOSIDE B] | 100% | > 80% | 70% | > 80% | > 80% | 100% | 100%
4 | O=C1c2ccccc2-c2ncccc21 | 97.6% | > 80% | 70% | > 80% | > 80% | 100% | 100%
5 | O=C1c2ccccc2C(=O)c2c(O)c(O)cc(O)c21 [PURPURIN] | 54.3% | > 80% | 70% | > 80% | > 80% | 100% | 100%
6 | COc1ccc2c(c1)C(=O)c1ccc3c(c1C2=O)OCO3 | 56.8% | > 80% | 70% | > 80% | > 80% | 100% | 78.9%
7 | CN(C)C1=CC(=O)c2cccc(O)c2C1=O | 53.8% | > 80% | > 80% | > 80% | > 80% | 100% | 89.7%
8 | O=C1C=CC(=O)c2c(O)cccc21 [JUGLONE] | 13.1% | 60% | 40% | > 80% | > 80% | 100% | 97.8%
9 | CC1C=CNC2=C1C(=O)c1c(O)ccc(O)c1C2=O (centres undefined) | 20.4% | 70% | 10% | > 80% | > 80% | 100% | 100%
10 | CN(C)C1=CC(=O)c2cc(O)ccc2C1=O | 68.5% | > 80% | 60% | > 80% | > 80% | 100% | 100%
11 | Cc1cnc2c(c1)C(=O)c1ccccc1C2=O | 48.7% | > 80% | 70% | > 80% | > 80% | 100% | 76.5%
12 | O=C1c2ccccc2C(=O)c2cnccc21 | 13% | 10% | 10% | > 80% | > 80% | 100% | 69.5%
